According to patent US20230406821A1, “STRIGOLACTONE DERIVATIVES” (Plant Response, Inc., priority 2017, published 2023):

System: S. lycopersicum cv. Micro-Tom
Assay: Stomatal conductance (LI-6400XT) after ABA treatment in tomato
Assay type: in vivo, Solanum lycopersicum
Settings: 500 μM in DMSO (0.1%) applied one hour before ABA (100 μM), compared to ABA alone (FIG. 6)
Text: FIG. 6 is a boxplot showing the distribution of tomato (S. lycopersicum cv. Micro-Tom) stomatal conductance (mmol/m^2/s) measurements taken via LI-6400XT, plotted by treatment. Plants treated with strigolactone molecule MBS-127 prior to treatment with abscisic acid (ABA) show increased stomatal conductance, as measured by gas exchange with the LI-6400XT, compared to plants treated with ABA alone. Stars indicate significant differences relative to ABA (*: adjusted P<0.05, **: adjusted P<0.01; p-values were adjusted for multiple-hypothesis testing using a Bonferroni correction).
An early response and critical component of abiotic stress response signaling in plants is the production and transport of the phytohormone abscisic acid (ABA) (Kuromori, T., et al., “ABA Transport and Plant Water Stress Responses,” Trends in Plant Science (2018) Vol. 23 (6), pp. 513-522). […]

COC(=O)/C=C/OC1C=C(C)C(=O)O1 (stereo not shown) [MBS-127, 3-(4-Methyl-5-oxo-2,5-dihydro-furan-2-yloxy)-acrylic acid methyl ester]
leaf (stomatal) conductance after ABA: protect against the drought stress response related reduction in leaf conductance induced by ABA
